Data from PubChem BioAssay AID330 (DTP/NCI, 2004).
Several values for one entry are separate records, joined by “and”; a condition that tells them apart may be missing. Equal entries are not always repeated. Toxic doses and inconclusive results are not listed. The calls were made as follows: active = survival T/C of 150% or more; inactive = T/C below 125% in these data.

Test system: P388 leukemia ip, CD2F1 mice, survival T/C
Test: NCI In Vivo Anticancer Drug Screen. Data for tumor model P388 Leukemia (intraperitoneal) in CD2F1 (CDF1) mice
Conditions: endpoint: median survival time, higher = longer survival
Summary of the method: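 Mice carrying the transplanted tumor received test compound or vehicle. Survival was recorded in each group, and the value is the treated-group measurement divided by that of the vehicle-treated control group.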

[1] = dose: 6.25 mg/kg/injection, schedule: Q01DX009 (ip), vehicle: saline
[2] = dose: 12.5 mg/kg/injection, schedule: Q01DX009 (ip), vehicle: saline
[3] = dose: 50.0 mg/kg/injection, schedule: Q01DX009 (ip), vehicle: saline with Tween-80
[4] = dose: 50.0 mg/kg/injection, schedule: Q04DX003 (ip), vehicle: saline with Tween-80
[5] = dose: 100.0 mg/kg/injection, schedule: Q01DX009 (ip), vehicle: saline with Tween-80
[6] = dose: 100.0 mg/kg/injection, schedule: Q04DX003 (ip), vehicle: saline with Tween-80
[7] = dose: 25.0 mg/kg/injection, schedule: Q01DX009 (ip), vehicle: saline
[8] = dose: 60.0 mg/kg/injection, schedule: Q01DX005 (ip), vehicle: saline with Tween-80
[9] = dose: 120.0 mg/kg/injection, schedule: Q01DX005 (ip), vehicle: saline with Tween-80
[10] = dose: 240.0 mg/kg/injection, schedule: Q01DX005 (ip), vehicle: saline with Tween-80
[11] = dose: 50.0 mg/kg/injection, schedule: Q01DX005 (ip), vehicle: Klucel (hydroxypropylcellulose) (HPC)
[12] = dose: 100.0 mg/kg/injection, schedule: Q01DX005 (ip), vehicle: Klucel (hydroxypropylcellulose) (HPC)
[13] = dose: 200.0 mg/kg/injection, schedule: Q01DX005 (ip), vehicle: Klucel (hydroxypropylcellulose) (HPC)
[14] = dose: 12.5 mg/kg/injection, schedule: Q01DX005 (ip), vehicle: Klucel (hydroxypropylcellulose) (HPC)
[15] = dose: 25.0 mg/kg/injection, schedule: Q01DX005 (ip), vehicle: Klucel (hydroxypropylcellulose) (HPC)

Measured: T/C

COC(=O)c1n[nH]c(C(C)C)c1N=NN(C)C
inactive: [1] 107 % of control and 113 % of control | [2] 116 % of control and 122 % of control

O=c1c2c([nH]c(=S)n1-c1ccccc1)NCCC2
inactive: dose: 50.0 mg/kg/injection, schedule: Q04DX003 (ip), vehicle: Klucel (hydroxypropylcellulose) (HPC) 101 % of control | dose: 100.0 mg/kg/injection, schedule: Q04DX003 (ip), vehicle: Klucel (hydroxypropylcellulose) (HPC) 101 % of control | dose: 200.0 mg/kg/injection, schedule: Q04DX003 (ip), vehicle: Klucel (hydroxypropylcellulose) (HPC) 111 % of control

Oc1ccc(C(c2ccc(O)cc2)C(Cl)(Cl)Cl)cc1
inactive: dose: 50.0 mg/kg/injection, schedule: Q04DX003 (ip), vehicle: saline + Tween-80 + alcohol 104 % of control | dose: 100.0 mg/kg/injection, schedule: Q04DX003 (ip), vehicle: saline + Tween-80 + alcohol 101 % of control | dose: 200.0 mg/kg/injection, schedule: Q04DX003 (ip), vehicle: saline + Tween-80 + alcohol 103 % of control | dose: 400.0 mg/kg/injection, schedule: Q04DX003 (ip), vehicle: saline + Tween-80 + alcohol 111 % of control

S=c1nn[nH]n1-c1ccccc1
inactive: dose: 25.0 mg/kg/injection, schedule: Q04DX003 (ip), vehicle: saline with Tween-80 100 % of control | [3] 110 % of control | [4] 100 % of control | [5] 110 % of control | [6] 100 % of control and 91 % of control

NCc1ccc(Cc2ccc(CN)cc2)cc1
inactive: [3] 100 % of control | [5] 100 % of control

O=S(=O)(c1ccc(NC(=S)NCc2ccncc2)cc1)N1CCCCC1
inactive: dose: 50.0 mg/kg/injection, schedule: Q01DX009 (ip), vehicle: Klucel (hydroxypropylcellulose) (HPC) 97 % of control | dose: 100.0 mg/kg/injection, schedule: Q01DX009 (ip), vehicle: Klucel (hydroxypropylcellulose) (HPC) 95 % of control | dose: 200.0 mg/kg/injection, schedule: Q01DX009 (ip), vehicle: Klucel (hydroxypropylcellulose) (HPC) 98 % of control

N=C(N)SCc1csc(N)n1
inactive: [7] 105 % of control | dose: 50.0 mg/kg/injection, schedule: Q01DX009 (ip), vehicle: saline 102 % of control | dose: 100.0 mg/kg/injection, schedule: Q01DX009 (ip), vehicle: saline 109 % of control | dose: 200.0 mg/kg/injection, schedule: Q01DX009 (ip), vehicle: saline 108 % of control

CCOC(=O)c1ccc(N2C(=O)C(Cl)(c3ccccc3)C2c2ccco2)cc1 (stereo not drawn)
inactive: [8] 100 % of control | [9] 95 % of control | [10] 94 % of control

CCOC(=O)C(C(=O)OCC)C1CCC2(C)CCC(=O)C=C2C1 (stereo not drawn)
inactive: [3] 95 % of control | [5] 100 % of control | dose: 200.0 mg/kg/injection, schedule: Q01DX009 (ip), vehicle: saline with Tween-80 105 % of control

CC(=O)Nc1cccc(OCc2cccc(N3C(N)=NC(N)=NC3(C)C)c2)c1
inactive: dose: 1.56 mg/kg/injection, schedule: Q01DX009 (ip), vehicle: distilled water + Tween-80 99 % of control | dose: 3.12 mg/kg/injection, schedule: Q01DX009 (ip), vehicle: distilled water + Tween-80 99 % of control | dose: 6.25 mg/kg/injection, schedule: Q01DX009 (ip), vehicle: distilled water + Tween-80 105 % of control | [1] 105 % of control | dose: 12.5 mg/kg/injection, schedule: Q01DX009 (ip), vehicle: distilled water + Tween-80 105 % of control | [2] 101 % of control | [7] 117 % of control

N#CC(=C1C=CC(=NO)C=C1)c1ccc(Cl)cc1
inactive: [4] 91 % of control | [6] 100 % of control and 92 % of control | dose: 200.0 mg/kg/injection, schedule: Q04DX003 (ip), vehicle: saline with Tween-80 98 % of control and 105 % of control | dose: 400.0 mg/kg/injection, schedule: Q04DX003 (ip), vehicle: saline with Tween-80 117 % of control

Cc1ccc(C(C#N)C(=O)CCCC(=O)Nc2ccc(C)c(C)c2)cc1 (stereo not drawn)
inactive: [8] 109 % of control | [9] 100 % of control | [10] 100 % of control

C/C(=N\N=C(N)N)c1c(C)nn(C(=N)N)c1C
inactive: dose: 15.0 mg/kg/injection, schedule: Q01DX005 (ip), vehicle: saline 99 % of control | dose: 30.0 mg/kg/injection, schedule: Q01DX005 (ip), vehicle: saline 98 % of control | dose: 60.0 mg/kg/injection, schedule: Q01DX005 (ip), vehicle: saline 99 % of control and 111 % of control

COc1cc(/C=N\NC(=O)C(C)SC(C)C(=O)N/N=C/c2cc(OC)c(OC)c(OC)c2)cc(OC)c1OC (stereo not drawn)
inactive: [11] 93 % of control | [12] 88 % of control | [13] 90 % of control

CN(C)CCC(=O)C1CC1
inactive: dose: 12.5 mg/kg/injection, schedule: Q01DX005 (ip), vehicle: suspension in saline 94 % of control | dose: 25.0 mg/kg/injection, schedule: Q01DX005 (ip), vehicle: suspension in saline 97 % of control | dose: 50.0 mg/kg/injection, schedule: Q01DX005 (ip), vehicle: saline with Tween-80 92 % of control | dose: 50.0 mg/kg/injection, schedule: Q01DX005 (ip), vehicle: suspension in saline 100 % of control

COC1CC2C=CC3C4OC2(/C(C)=C/C(C)C(C(C)O)OC1=O)C3C(O)C(C)C4OC(=O)c1ccc[nH]1 (stereo not drawn)
inactive: [14] 104 % of control | [15] 99 % of control | [11] 95 % of control | [12] 99 % of control | [13] 98 % of control

Cc1nc2[nH]cc(-c3ccccc3)c2c(=N)n1-c1ccc(F)cc1
inactive: dose: 6.25 mg/kg/injection, schedule: Q01DX005 (ip), vehicle: Klucel (hydroxypropylcellulose) (HPC) 101 % of control | [14] 101 % of control | [15] 102 % of control

NC(=Nc1ccc(Cl)cc1)N/N=C/c1ccc(Cl)c(Cl)c1
inactive: dose: 25.0 mg/kg/injection, schedule: Q04DX002 (ip), vehicle: saline with Tween-80 103 % of control | dose: 40.0 mg/kg/injection, schedule: Q04DX002 (ip), vehicle: saline with Tween-80 100 % of control | dose: 100.0 mg/kg/injection, schedule: Q04DX002 (ip), vehicle: saline with Tween-80 106 % of control | dose: 200.0 mg/kg/injection, schedule: Q04DX002 (ip), vehicle: saline with Tween-80 107 % of control | dose: 400.0 mg/kg/injection, schedule: Q04DX002 (ip), vehicle: saline with Tween-80 113 % of control

COc1ccccc1C(Nc1ccc([N+](=O)[O-])cc1)P(=O)(Oc1ccccc1)Oc1ccccc1 (stereo not drawn)
inactive: [11] 95 % of control | [12] 106 % of control | [13] 95 % of control
